According to US9687552B2, “Association of poly(N-acryloylglycinamide) with at least one active principle” (CENTRE NATIONAL DE LA RECHERCHE SCIENTIFIQUE, priority 2012, dated 2017):

Key:
[1] = release of drug models from PAG hydrogel into physiological serum at 37° C. (UV spectrometry); format: physicochemical
Method: 60 mg of PAG polymer of molecular mass equal to 170 000 g/mol are placed in contact with 1 mil of physiological serum (6% by mass) in a small, hermetically scaled cylindrical flask and heated at 60° C. for a few minutes to obtain a clear, homogeneous solution, which is gelled by cooling.
The cycle is repeated twice to perfect the homogeneity of the gel.
10 mg of the compound chosen as drug model are added. The mixture is heated to have a homogeneous solution, which is left to cool to obtain the compound-gel system.
The flask is placed in a mobile incubator at 37° C. after having added on top of the gel formed 1 ml of physiological serum, into which the compound trapped in the hydrogel gradually diffuses. The receiving medium is then renewed at regular intervals and the compound that has diffused is evaluated quantitatively by UV spectrometry. The curve of gradual release is plotted as a percentage of the amount initially placed in the gel.

[2] = test system: tissues and organs of the intraperitoneal cavity in mice; experiment: delivery of methylene blue from PAG hydrogel to tissues and organs of the intraperitoneal cavity in mice; format: in vivo
Method: The delivery of the dye from the charged hydrogel to the tissues and organs of the intraperitoneal cavity in mice is observed.
To do this, an isotonic solution of PAG (molar mass equal to about 176 000 g/mol, 6% by weight of PAG) containing methylene blue (4 ml of solution (20 mg of dye) per 16 ml of gel) formed at 60° C. conditioned is introduced into heated syringes to be injected rapidly at 45° C. through a 23-gauge needle in order to fill the intraperitoneal cavity of the mice.
The mice treated according to the regulatory procedures were sacrificed after 2 hours, 8 hours, 24 hours, 30 hours and 52 hours (two animals per point).
After opening the abdomen, the distributions of the blue color in the gel, the tissues and the organs were assessed visually and compared at the same times with those observed for the control mice which received by similar injection an isotonic solution of the same concentration of methylene blue.

Compound | extent of release from the gel ([1]; 10 mg in PAG 170 000 g/mol gel, 6% by mass in physiological serum, 37° C.) | "burst" release as percentage of the amount initially placed in the gel ([1]; at 1 hour, 10 mg in PAG 170 000 g/mol gel, 6% by mass in physiological serum, 37° C.) | dissolution in the same medium without gel ([1]; physiological serum, without gel) | time after which the blue color totally disappeared ([2]; control mice: isotonic solution of the same concentration without PAG, intraperitoneal injection) [h] | time the gel, tissues and organs, especially the liver, remained colored ([2]; in isotonic PAG solution (about 176 000 g/mol, 6% by weight), injected at 45° C. intraperitoneally, mice)
CC(=O)[O-].CC(=O)[O-].[Co+2] [cobalt acetate] | gradual release until depletion is complete | less than 15% | dissolves instantaneously in its entirety |  | 
CN(C)c1ccc2nc3ccc(=[N+](C)C)cc-3sc2c1 [methylene blue] |  |  |  | 24 | at least 52 hours
